Measured values taken from PubChem BioAssay (NCI).
Where “and” joins values, the source holds several entries; their conditions need not be identical. Equal values may be shown once.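 Cells were grown in 96-well plates and exposed to each compound for 48 hours at five concentrations; endpoints were interpolated linearly between bracketing concentrations, or set to the highest concentration if not reached. At the GI50, growth is halved. TGI: total growth inhibition.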

What was measured:
Test in all cases: DTP human tumour cell line panel, 48 h
HCT-15 colon = system: HCT-15 colon
BT-549 breast = system: BT-549 breast
T-47D breast = system: T-47D breast
SK-OV-3 ovarian = system: SK-OV-3 ovarian
M14 melanoma = system: M14 melanoma
SK-MEL-28 melanoma = system: SK-MEL-28 melanoma
U251 CNS = system: U251 CNS
RPMI-8226 leukemia = system: RPMI-8226 leukemia
PC-3 prostate = system: PC-3 prostate
MOLT-4 leukemia = system: MOLT-4 leukemia

Compound | GI50 (HCT-15 colon) | TGI (HCT-15 colon) | GI50 (BT-549 breast) [µM] | TGI (BT-549 breast) [µM] | GI50 (T-47D breast) | TGI (T-47D breast) | GI50 (SK-OV-3 ovarian) | TGI (SK-OV-3 ovarian) | GI50 (M14 melanoma) [µM] | TGI (M14 melanoma) [µM] | GI50 (SK-MEL-28 melanoma) | TGI (SK-MEL-28 melanoma) | GI50 (U251 CNS) | TGI (U251 CNS) [µM] | GI50 (RPMI-8226 leukemia) [µM] | TGI (RPMI-8226 leukemia) [µM] | GI50 (PC-3 prostate) [µM] | TGI (PC-3 prostate) [µM] | GI50 (MOLT-4 leukemia) | TGI (MOLT-4 leukemia) [µM]
C[C@]12CC[C@H]3[C@@H](CC=C4C[C@@H](N5CCCC5)CC[C@@]43C)[C@@H]1C/C(=C\c1cccc(OCCN3CCOCC3)c1)[C@@H]2O | 2.39 µM | > 100 µM | 2.33 | > 100 | 2.67 µM | > 100 µM | 17.2 µM | 35.1 µM | 1.96 | 4.07 | 2.01 µM | 3.99 µM | 2.95 µM | > 100 | – | – | – | – | – | –
COC(=O)C1=C(O)[C@H](C(=O)OC)C2(O)C(C(=O)OC)[C@H](c3ccc(OC(=O)C(C)c4ccc(CC(C)C)cc4)cc3)C[C@@H]1[C@@H]2C(=O)OC (stereo partly drawn) | 12.9 µM | > 50 µM | 1.03 | 3.68 | 12.3 µM | > 50 µM | 38.5 µM | > 50 µM | 25.3 | > 50 | 12.6 µM | 40.8 µM | 11.6 µM | 30.2 | 4.62 | > 50 | 35 | > 50 | – | –
CCCCCCCCCCCCCC[N+](C)(C)CCCCCCCCCCCCCC | 3.33 µM | > 100 µM | 2.38 | 5.47 | 2.2 µM | 7.73 µM | 3.6 µM | 19.7 µM | – | – | – | – | – | – | 1.77 | 4.44 | 1.85 | 4.45 | 2.41 µM | 6.44
CC1=C(c2ccccc2)C(O)(c2ccccc2)C(C)C1=O (stereo not drawn) | 31.4 µM | > 100 µM | 14.6 | 55.4 | 23.1 µM | > 100 µM | 20 µM | > 100 µM | 4.72 | 33.7 | 25.5 µM | > 100 µM | 22.1 µM | > 100 | – | – | 22.8 | > 100 | 21.6 µM | > 100
Cc1csc2[n+]1-c1ccccc1N(C(=O)Nc1ccccc1)C(C)C2 (stereo not drawn) | > 100 µM | > 100 µM | > 100 | > 100 | > 100 µM | > 100 µM | – | – | 43.7 | > 100 | > 100 µM | > 100 µM | 69.4 µM | > 100 | 67.5 | > 100 | 59.1 | > 100 | 88.5 µM | > 100
CN(C)c1ccc2oc(=O)c3ccccc3c2c1 | – | > 100 µM | – | > 100 | – | > 100 µM | – | – | – | > 100 | – | > 100 µM | – | 58.7 | – | > 100 | – | > 100 | – | > 100
COc1cc(/C=C/C(=O)/C=C/c2ccc(-n3ccnc3C)cc2)ccc1O | 2.6 µM | 8.47 µM | 1.97 | 4.82 | 3.12 µM | 15.1 µM | 8.14 µM | > 100 µM | 2.25 | 5.94 | 2.18 µM | 5 µM | 2.31 µM | 6.4 | 1.84 | 6.1 | – | – | 4.05 µM | > 100
Nc1nc([Se])c2ncn(C3OC(CO)C(O)C3O)c2n1 (stereo not drawn) | 7.84 µM | > 100 µM | 30.6 | > 100 | 28.8 µM | > 100 µM | 6.96 µM | > 100 µM | 4.28 | > 100 | > 100 µM | > 100 µM | 73.3 µM | > 100 | – | – | 24.8 | > 100 | 3.4 µM | > 100
CCC(C)Nc1ccc(N)cc1 (stereo not drawn) | 3.84 µM | 15.6 µM | 6.26 | 20.9 | 3.63 µM | 14.1 µM | 4.98 µM | 93.3 µM | 4.72 | 15.5 | 6.37 µM | 18.9 µM | 3.64 µM | 13 | – | – | 2.56 | 11.2 | 4.29 µM | 12.4
COc1ccc2c(c1)c(-c1nc(-c3c[nH]c4ccncc34)cs1)cn2C | 1.25 µM | 2.58 µM | 1.81 | 3.45 | – | – | 1.88 µM | 3.37 µM | 1.78 | 3.26 | 1.63 µM | 3.04 µM | 1.87 µM | 3.3 | 1.83 | 3.83 | 1.6 | 3.06 | – | –
N#C/C(=C/c1ccc2c(c1)OCO2)C(=O)c1ccccc1 | – | > 100 µM | – | – | – | – | – | > 100 µM | – | > 100 | – | > 100 µM | – | > 100 | – | > 100 | – | – | – | > 100
Cc1cccc(C2SCc3nc4ccccc4n32)c1 (stereo not drawn) | – | 54.5 µM | – | – | – | – | – | 72.9 µM | – | > 100 | – | 65.7 µM | – | 47.2 | – | > 100 | – | – | – | > 100
O=C(Nc1ccccc1)Nc1ccc2cc3ccc(NC(=O)Nc4ccccc4)cc3nc2c1 | 37.2 µM | > 100 µM | 1.88 | 3.69 | 1.53 µM | 3.08 µM | 2.13 µM | 4.5 µM | – | – | 1.82 µM | 3.22 µM | 0.978 µM | 2.28 | 5.42 | > 100 | – | – | 0.559 µM | 2.13
COC(=O)c1ccc(CN2C(=O)C(Cl)=C(Nc3cccc(Cl)c3C)C2=O)cc1 | 28.4 µM | 78.9 µM | – | – | > 100 µM | > 100 µM | > 100 µM | > 100 µM | 4.01 | > 100 | 15.2 µM | > 100 µM | 32.4 µM | > 100 | 3.76 | 48.2 | 37.6 | > 100 | 5.14 µM | > 100
CCCCCCCCCCCCCCCCCCn1cc[n+](C)c1 | 0.689 µM and 0.888 µM | 2 µM and 2.34 µM | 1.17 | 2.71 | 0.403 µM and 0.433 µM | 2.96 µM and 3.31 µM | 1.23 µM and 1.1 µM | 4.14 µM and 2.62 µM | – | – | 1.01 µM and 1.15 µM | 2.41 µM and 2.59 µM | 0.372 µM and 0.397 µM | 1.51 | 0.0268 | 0.233 | – | – | 0.189 µM and 0.65 µM | –
Cc1cccc2nc3ccccc3c(Nc3ccc(NS(C)(=O)=O)cc3)c12 | 5.89 µM | 31.6 µM | 14.3 | 27.7 | 7.59 µM | 24 µM | 6.22 µM | 55.5 µM | 9.95 | 23 | 13.8 µM | 29.6 µM | 3.15 µM | 13.5 | 2.68 | 9.19 | – | – | 1.72 µM | 5.91
COc1ccc2c(c1OC)CO[C@@H]2[C@H]1c2c(cc3c(c2OC)OCO3)CCN1S(=O)(=O)c1cn(C)cn1 | 0.722 µM | > 100 µM | 2.87 | 84.8 | 16.9 µM | > 100 µM | 2.57 µM | > 100 µM | 0.513 | > 100 | 5.4 µM | > 100 µM | 2.24 µM | > 100 | 2.48 | 30.2 | – | – | 3.84 µM | > 100
C=C/C=C/[C@@H](O)CC(=C)C[C@H]1OC2[C@H](C)[C@@H](OC(=O)C[C@H]3C[C@H](OC(C)=O)C[C@@]4(C[C@@](C)(O)C[C@H](CC(=C)[C@@H](C)[C@H](OC(C)=O)[C@H](C)C(=O)C[C@@H]5C[C@H](OC)CC6(C[C@@H](O)C[C@H](/C=C\CCC[C@H]7O[C@](O)(C=C[C@H]7C)[C@H]2O)O6)O5)O4)O3)[C@@H]1O | 0.00619 µM and 0.0025 µM | > 9.46 µM | 0.0025 | > 25 | – | > 25 µM | 0.000465 µM and 0.0025 µM | – | – | 0.00709 | – | > 25 µM | – | > 25 | 0.0025 | 0.0821 | 0.0025 | > 25 | – | –
CN(C)C(=N/O)/C(=N\O)N(C)C | – | > 100 µM | – | – | – | – | – | > 100 µM | – | > 100 | – | > 100 µM | – | > 100 | – | > 100 | – | – | – | > 100
Nc1ccc(C2=CC(c3ccc(Cl)cc3)N3C=CSC3=N2)cc1 (stereo not drawn) | 2 µM | 5.63 µM | 2.64 | 7 | 4.76 µM | 27.7 µM | 5.07 µM | 25.5 µM | 2.86 | 7.43 | 4.86 µM | 16.6 µM | 2.94 µM | 12.1 | – | – | 8.8 | > 100 | 4.03 µM | 89.7
Cc1ccc(S(=O)(=O)SC(C)(C)C)cc1 | – | 53 µM | – | 42.3 | – | > 100 µM | – | > 100 µM | – | > 88.8 | – | > 100 µM | – | > 100 | – | 46.4 | – | – | – | 41.5
O=C1N2Cc3c4ccc5c3CN3C(=O)N6Cc7c(ccc(c7CN1C6(c1ccccc1)C23c1ccccc1)OCCOCCNCCOCCO4)OCCOCCNCCOCCO5 (stereo not drawn) | – | 91.3 µM | – | – | – | – | – | > 100 µM | – | 57.8 | – | > 100 µM | – | > 100 | – | 92.2 | – | – | – | > 100
NC(=O)c1cc([N+](=O)[O-])c(Cl)c([N+](=O)[O-])c1Cl | 0.458 µM | 3.25 µM | 3.41 | 12.6 | – | – | 4.21 µM | 14.5 µM | – | – | 1.74 µM | 3.15 µM | 1.2 µM | 2.49 | 0.661 | 3.61 | 1.58 | 3.1 | – | –
